Assay results: patent US8067445B2, “N,N-disubstituted aminoalkylbiphenyl antagonists of prostaglandin D2 receptors” (Panmira Pharmaceuticals, LLC, priority 2008, dated 2011)
Read-outs that look alike come from different tables or passages of the source.

How the values were obtained:
human DP1 receptor = molecular target: T1, human DP1 receptor (Homo sapiens, UniProt Q13258); assay: DP1 radioligand binding assay ([3H]BWA868C, platelet membranes)
T1 construct: tissue Biological Specialty Corporation; host or cells: human platelet membranes
T1 sequence (Q13258 1-359): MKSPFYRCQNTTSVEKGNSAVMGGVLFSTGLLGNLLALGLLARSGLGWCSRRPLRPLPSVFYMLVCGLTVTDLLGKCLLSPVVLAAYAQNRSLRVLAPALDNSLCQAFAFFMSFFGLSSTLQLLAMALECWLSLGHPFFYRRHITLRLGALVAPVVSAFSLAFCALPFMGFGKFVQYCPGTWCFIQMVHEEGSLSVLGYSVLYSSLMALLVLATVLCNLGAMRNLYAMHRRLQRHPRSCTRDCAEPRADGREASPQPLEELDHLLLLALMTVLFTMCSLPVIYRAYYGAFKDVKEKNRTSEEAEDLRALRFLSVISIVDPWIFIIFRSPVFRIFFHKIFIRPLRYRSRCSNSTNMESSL
Experimental: The ability of a compound to bind to the human DPI receptor was evaluated via a radioligand membrane binding assay using the DP1 selective synthetic ligand [^311]BWA868C. Packed human platelets (Biological Specialty Corporation), were resuspended in 6 volumes of Hepes/HBSS buffer (10 mM Hepes, 1 mM DTT in Hanks Balanced Salt Solution (HBSS)), lysed and centrifuged at 75,000×g to pellet the membranes. Membranes were resuspended in Hepes/HBSS buffer to approximately 12 mg protein/ml. Membranes (20 μg protein/well) are incubated in 96-well plates with 2 nM [^3H]BWA868C and test compound in Assay Buffer (50 mM Hepes, 10 mM MnCl2, 1 mM EDTA, plus or minus 0.2% human serum albumin, pH 7.4) for 60 minutes at room temperature. The reactions are terminated by rapid filtration through Whatman GF/C glass fibre filter plates. The filter plates were pre-soaked in 0.33% polyethylenimine for 30 minutes at room temperature then washed in Wash Buffer (50 mM Hepes, 0.5 M NaCl pH 7.4) prior to harvesting. After harvesting, the filter plates are washed 3 times with 1 ml cold Wash Buffer then dried. Scintillant is then added to the plates and the radioactivity retained on the filters is determined on a Packard TopCount (Perkin Elmer). Specific binding is determined as total radioactive binding minus non-specific binding in the presence of 10 μM BW A868C. IC50s were determined using GraphPad prism analysis of drug titration curves.

human DP2 receptor = molecular target: T2, human DP2 receptor (Homo sapiens, UniProt Q9Y5Y4); assay: DP2/CRTH2 radioligand binding assay ([3H]PGD2); conditions: [3H]PGD2 binding, membranes of HEK293 cells expressing human DP2; read-out: hDP2
T2 construct: expressed in transfected cells
T2 sequence (Q9Y5Y4 1-395): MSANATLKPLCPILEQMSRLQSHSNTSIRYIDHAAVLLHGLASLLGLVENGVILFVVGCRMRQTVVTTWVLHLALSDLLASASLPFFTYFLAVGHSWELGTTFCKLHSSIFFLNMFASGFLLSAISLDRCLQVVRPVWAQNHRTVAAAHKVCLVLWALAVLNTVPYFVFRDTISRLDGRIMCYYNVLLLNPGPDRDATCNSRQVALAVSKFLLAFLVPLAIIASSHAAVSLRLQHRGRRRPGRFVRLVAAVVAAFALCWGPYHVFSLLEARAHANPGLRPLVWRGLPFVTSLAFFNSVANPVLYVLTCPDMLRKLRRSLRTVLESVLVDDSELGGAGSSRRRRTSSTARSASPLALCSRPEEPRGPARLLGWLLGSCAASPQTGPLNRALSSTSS
Experimental: The ability of a compound to bind to the human DP2 receptor is assessed via a radioligand binding assay using [^3H]PGD2. HEK293 cells stably expressing recombinant human DP2 are resuspended in 10 mM Hepes, 7.4 containing 1 mM DTT, lysed and centrifuged at 75,000×g to pellet the membranes. The membranes are resuspended in 10 mM Hepes, 7.4 containing 1 mM DTT and 10% glycerol to approximately 5 mg protein/ml. Membranes (2-10 μg protein/well) are incubated in 96-well plates with 1 nM [^3H]PGD2 and test compound in Assay Buffer (50 mM Hepes, 10 mM MnCl2, 1 mM EDTA, plus or minus 0.2% human serum albumin, pH 7.4) for 60 minutes at room temperature. The reactions are terminated by rapid filtration through Whatman GF/C glass fibre filter plates. The filter plates were pre-soaked in 0.33% polyethylenimine for 30 minutes at room temperature then washed in Wash Buffer (50 mM Hepes, 0.5 M NaCl pH 7.4) prior to harvesting. After harvesting, the filter plates are washed 3 times with 1 ml cold Wash Buffer then dried. Scintillant is then added to the plates and the radioactivity retained on the filters is determined on a Packard TopCount (Perkin Elmer). Specific binding is determined as total radioactive binding minus non-specific binding in the presence of 10 μM PGD2. IC50s were determined using GraphPad prism analysis of drug titration curves.

[1] = [3H]BWA868C binding, human platelet membranes, read-out: hDP1

CCN(Cc1cc(C(F)(F)F)ccc1-c1cc(CC(=O)O)ccc1OC)C(=O)OC [Compound 1-23, {2′-[(Ethyl-methoxycarbonyl-amino)-methyl]-6-methoxy-4′-trifluoromethyl-biphenyl-3-yl}-acetic acid]
IC50 (human DP1 receptor; [1]): 1 to 30 µM

CCN(Cc1cc(C(F)(F)F)ccc1-c1cc(CC(=O)O)ccc1OC)C(=O)C(C)Oc1ccccc1 (stereo not drawn) [Compound 1-45, (2′-{[Ethyl-(2-phenoxy-propionyl)-amino]-methyl}-6-methoxy-4′-trifluoromethyl-biphenyl-3-yl)-acetic acid]
IC50 (human DP1 receptor; [1]): 1 to 30 µM

CCN(Cc1cc(C(F)(F)F)ccc1-c1cc(CC(=O)O)ccc1OC)C(=O)N[C@@H](C)c1ccc(Cl)cc1 [Compound 1-180, (2′-{3-[(S)-1-(4-Chloro-phenyl)-ethyl]-1-ethyl-ureidomethyl}-6-methoxy-4′-trifluoromethyl-biphenyl-3-yl)-acetic acid]
IC50 (human DP1 receptor; [1]): 1 to 30 µM

CCN(Cc1cc(F)ccc1-c1cc(CC(=O)O)ccc1OC)C(=O)C1CC1 [Compound 1-186, {2′-[(Cyclopropanecarbonyl-ethyl-amino)-methyl]-4′-fluoro-6-methoxy-biphenyl-3-yl}-acetic acid]
IC50 (human DP1 receptor; [1]): 1 to 30 µM

COc1ccc(CC(=O)O)cc1-c1ccc(C(F)(F)F)cc1CN(C)C(=O)OCc1ccccc1 [Compound 1-27, {2′-[(Benzyloxycarbonyl-methyl-amino)-methyl]-6-methoxy-4′-trifluoromethyl-biphenyl-3-yl}-acetic acid]
IC50 (human DP1 receptor; [1]): 1 to 30 µM

O=C(O)CCn1c2c(c3ccccc31)C[C@H](NS(=O)(=O)c1ccc(F)cc1)CC2 [Ramatroban, reference compound]
IC50 (human DP1 receptor; [1]): 1 to 30 µM

CC(=O)N(Cc1cc(C(F)(F)F)ccc1-c1cc(CC(=O)O)ccc1F)CC(F)(F)F [Compound 1-11, (2′-{[Acetyl-(2,2,2-trifluoro-ethyl)-amino]-methyl}-6-fluoro-4′-trifluoromethyl-biphenyl-3-yl)-acetic acid]
IC50 (human DP1 receptor; [1]): 1 to 30 µM

CCN(Cc1cc(F)ccc1-c1cc(CC(=O)O)ccc1OC)C(=O)NCc1ccc(Cl)cc1 [Compound 1-185, {2′-[3-(4-Chloro-benzyl)-1-ethyl-ureidomethyl]-4′-fluoro-6-methoxy-biphenyl-3-yl}-acetic acid]
IC50 (human DP1 receptor; [1]): 1 to 30 µM

CCN(Cc1cc(C(F)(F)F)ccc1-c1cc(CC(=O)O)ccc1OC)C(=O)COc1ccccc1 [Compound 1-48, (2′-{[Ethyl-(2-phenoxy-acetyl)-amino]-methyl}-6-methoxy-4′-trifluoromethyl-biphenyl-3-yl)-acetic acid]
IC50 (human DP1 receptor; [1]): 1 to 30 µM

COc1ccc(CC(=O)O)cc1-c1ccc(C(F)(F)F)cc1CN(C)C(C)=O [Compound 1-1, {2′-[(Acetyl-methyl-amino)-methyl]-6-methoxy-4′-trifluoromethyl-biphenyl-3-yl}-acetic acid]
IC50 (human DP1 receptor; [1]): 1 to 30 µM

CCN(Cc1cc(C(F)(F)F)ccc1-c1cc(CC(=O)O)ccc1OC)C(=O)OCc1cc(Cl)cc(Cl)c1 [Compound 1-38, (2′-{[(3,5-Dichloro-benzyloxycarbonyl)-ethyl-amino]-methyl}-6-methoxy-4′-trifluoromethyl-biphenyl-3-yl)-acetic acid]
IC50 (human DP1 receptor; [1]): 1 to 30 µM

CCN(Cc1cc(C(F)(F)F)ccc1-c1cc(CC(=O)O)ccc1OC)C(=O)OCc1ccccc1Cl [Compound 1-39, (2′-{[(2-Chloro-benzyloxycarbonyl)-ethyl-amino]-methyl}-6-methoxy-4′-trifluoromethyl-biphenyl-3-yl)-acetic acid]
IC50 (human DP1 receptor; [1]): 1 to 30 µM

CCN(Cc1cc(C(F)(F)F)ccc1-c1cc(CC(=O)O)ccc1OC)C(=O)OCc1cc(F)cc(F)c1 [Compound 1-40, (2′-{[(3,5-Difluoro-benzyloxycarbonyl)-ethyl-amino]-methyl}-6-methoxy-4′-trifluoromethyl-biphenyl-3-yl)-acetic acid]
IC50 (human DP1 receptor; [1]): 1 to 30 µM

COc1ccc(CC(=O)O)cc1-c1ccc(C(F)(F)F)cc1CN(C(=O)OCc1ccccc1)C1CC1 [Compound 1-36, {2′-[(Benzyloxycarbonyl-cyclopropyl-amino)-methyl]-6-methoxy-4′-trifluoromethyl-biphenyl-3-yl}-acetic acid]
IC50 (human DP1 receptor): 1 to 30 µM

CCN(Cc1cc(C(F)(F)F)ccc1-c1cc(CC(=O)O)ccc1OC)C(=O)NCc1cc(F)cc(F)c1 [Compound 1-178, {2′-[3-(3,5-Difluoro-benzyl)-1-ethyl-ureidomethyl]-6-methoxy-4′-trifluoromethyl-biphenyl-3-yl}-acetic acid]
IC50 (human DP1 receptor; [1]): 1 to 30 µM

CCN(Cc1cc(C(F)(F)F)ccc1-c1cc(CC(=O)O)ccc1OC)C(=O)C1CC1 [Compound 1-33, {2′-[(Cyclopropanecarbonyl-ethyl-amino)-methyl]-6-methoxy-4′-trifluoromethyl-biphenyl-3-yl}-acetic acid]
IC50 (human DP1 receptor; [1]): 1 to 30 µM

CCN(Cc1cc(F)ccc1-c1cc(CC(=O)O)ccc1OC)C(=O)NCc1ccccc1 [Compound 1-187, [2′-(3-Benzyl-1-ethyl-ureidomethyl)-4′-fluoro-6-methoxy-biphenyl-3-yl]-acetic acid]
IC50 (human DP1 receptor; [1]): 1 to 30 µM

COc1ccc(CC(=O)O)cc1-c1ccc(C(F)(F)F)cc1CN(CC(F)(F)F)C(C)=O [Compound 1-4, (2′-{[Acetyl-(2,2,2-trifluoro-ethyl)-amino]-methyl}-6-methoxy-4′-trifluoromethyl-biphenyl-3-yl)-acetic acid]
IC50 (human DP1 receptor; [1]): 1 to 30 µM

CCN(Cc1cc(C(F)(F)F)ccc1-c1cc(CC(=O)O)ccc1OC)C(=O)NCc1ccc(F)cc1 [Compound 1-176, {2′-[1-Ethyl-3-(4-fluoro-benzyl)-ureidomethyl]-6-methoxy-4′-trifluoromethyl-biphenyl-3-yl}-acetic acid]
IC50 (human DP1 receptor; [1]): 1 to 30 µM

CCOc1ccc(CC(=O)O)cc1-c1ccc(C(F)(F)F)cc1CN(CC)C(=O)OCc1ccccc1 [Compound 1-129, {2′-[(Benzyloxycarbonyl-ethyl-amino)-methyl]-6-ethoxy-4′-trifluoromethyl-biphenyl-3-yl}-acetic acid]
IC50 (human DP1 receptor; [1]): 1 to 30 µM

CCN(Cc1cc(C(F)(F)F)ccc1-c1cc(CC(=O)O)ccc1OC)C(=O)NCc1cc(Cl)cc(Cl)c1 [Compound 1-165, {2′-[3-(3,5-Dichloro-benzyl)-1-ethyl-ureidomethyl]-6-methoxy-4′-trifluoromethyl-biphenyl-3-yl}-acetic acid]
IC50 (human DP1 receptor; [1]): 1 to 30 µM

CCN(Cc1cc(NC(C)=O)ccc1-c1cc(CC(=O)O)ccc1OC)C(=O)OCc1ccccc1 [Compound 1-153, {4′-Acetylamino-2′-[(benzyloxycarbonyl-ethyl-amino)-methyl]-6-methoxy-biphenyl-3-yl}-acetic acid]
IC50 (human DP1 receptor; [1]): 1 to 30 µM

COc1ccc(CC(=O)O)cc1-c1ccc(C(F)(F)F)cc1CN(C(C)=O)C1CCC1 [Compound 1-30, {2′-[(Acetyl-cyclobutyl-amino)-methyl]-6-methoxy-4′-trifluoromethyl-biphenyl-3-yl}-acetic acid]
IC50 (human DP1 receptor; [1]): 1 to 30 µM

CCN(Cc1cc(C(F)(F)F)ccc1-c1cc(CC(=O)O)cc(C(F)(F)F)c1)C(=O)NCc1ccc(Cl)cc1 [Compound 1-193, {2′-[3-(4-Chloro-benzyl)-1-ethyl-ureidomethyl]-5,4′-bis-trifluoromethyl-biphenyl-3-yl}-acetic acid]
IC50 (human DP2 receptor): < 0.3 µM
